According to patent US20240166630A1, “INDOLE DERIVATIVES AS SEROTONERGIC AGENTS USEFUL FOR THE TREATMENT OF DISORDERS RELATED THERETO” (Mindset Pharma Inc., priority 2021, published 2024):

Columns and labels:
[1] = molecular target: T1, human 5-HT2A (Homo sapiens, UniProt P28223); test: Radioligand binding assay on human 5-HT2A receptor ([3H]-ketanserin)
Description: i. The assay buffer was prepared following the table below;
iii. Prepared (v/v) DMSO as follows: a. […] The plates were sealed and incubated at 4° C. for 3 hrs;
iv. Preparation of assay plates: a.
vi. The plates were sealed and incubated at 27° C. for 90 min.

[2] = Liver microsomes stability with NADPH, mouse; settings: for half-life at 2 μM / microsomal CLint at 2 μM: male, mouse, microsomes; for Remaining Percentage (%) after 60 min Mouse: mouse liver microsomes, with NADPH, 2 μM
Description: (§1) The objective of this study was to estimate in vitro metabolic stability of representative compounds of the application in pooled human and male mouse liver microsomes. The concentrations of parent compounds in reaction systems were evaluated by LC-MS/MS for estimating the stability in pooled human and male mouse liver microsomes. The in vitro intrinsic clearances of test compounds were determined as well.
(§2) A master solution in the “Incubation Plate” containing phosphate buffer, ultra-pure H2O, MgCl2 solution and liver microsomes was made according to Table 3. The mixture was pre-warmed at 37° C. water bath for 5 minutes.
(§3) 40 μL of 10 mM NADPH solution was added to each well. The final concentration of NADPH was 1 mM. The negative control samples were prepared by replacing NADPH with 40 μL of ultra-pure H2O. Samples were prepared in duplicate. Negative controls were prepared in singlet.
(§4) The reaction was started with the addition of 4 μL of 200 μM test compounds or control compounds to each master solution to get the final concentration of 2 μM. This study was performed in duplicate.
(§5) Aliquots of 50 μL were taken from the reaction solution at 0, 15, 30, 45 and 60 minutes. The reaction solutions were stopped by the addition of 4 volumes of cold methanol with IS (100 nM alprazolam, 200 nM imipramine, 200 nM labetalol and 2 μM ketoprofen). Samples were centrifuged at 3,220 g for 40 minutes. Aliquot of 90 μL of the supernatant was mixed with 90 μL of ultra-pure H2O and then was used for LC-MS/MS analysis.
(§6) LC/MS analysis was performed for all samples from this study using a Shimadzu liquid chromatograph separation system equipped with degasser DGU-20A5R; solvent delivery unit LC-30AD; system controller SIL-30AC; column oven CTO-30A; CTC Analytics HTC PAL System; Mass spectrometric analysis was performed using an Triple Quad™ 5500 instrument.
(§7) All calculations were carried out using Microsoft Excel. Peak area ratios of test compound to internal standard (listed in the below table) were determined from extracted ion chromatograms.
(§8) All calculations were carried out using Microsoft Excel. Peak areas were determined from extracted ion chromatograms. The slope value, k, was determined by linear regression of the natural logarithm of the remaining percentage of the parent drug vs. incubation time curve.
(§9) The in vitro half-life (in vitro t1/2) was determined from the slope value:
(§10) Conversion of the in vitro t1/2 (min) into the in vitro intrinsic clearance (in vitro CLint, in μL/min/mg proteins) was done using the following equation (mean of duplicate determinations): […]

[3] = Liver microsomes stability with NADPH, rat; settings: for Remaining Percentage (%) after 60 min Rat: rat liver microsomes, with NADPH, 2 μM; for half-life at 2 μM / microsomal CLint at 2 μM: rat, microsomes
[4] = Liver microsomes stability with NADPH, human; settings: for Remaining Percentage (%) after 60 min Human: 2 μM; for half-life at 2 μM / microsomal CLint at 2 μM: human, microsomes
Description: as §1, §2, §3, §4, §5, §6, §7, §8, §9, §10

[5] = molecular target: T2, human 5-HT2A (h5-HT2A) receptor (Homo sapiens, UniProt P28223); test: FLIPR assay, human 5-HT2A receptor under agonist mode; assay type: cell-based
T2 construct: expressed in transfected cells; kept under G418 and hygromycin B selection
Description: I. Assessment of the Activated Effect of Compounds of Formula I-B Targeting on Human 5-HT2A (h5-HT2A) Receptor Under Agonist Mode:
1. The cells were cultured in cell culture medium (DMEM containing 10% FBS, 1× penicillin-streptomycin 300 μg/ml G418 and 100 μg/ml hygromycin B) at 37° C., 5% (v/v) CO2.
2. One day before the assays, the cells were detached using TrypLE™ Express and count cells using cell counter.
3. 20000 cells/well were seeded in 30 μl/well culture medium to a 384-well cell plate and incubated the cells overnight at 37° C., 5% (v/v) CO2.
4. On the assay day, 2×dye solution was prepared following the manual of the FLIPR® Calcium 6 Assay Kit: i. The dye was diluted with assay buffer (20 mM HEPES in 1×HBSS, PH7.4); ii. probenecid was added to the final concentration of 5 mM; iii. Vortexed vigorously for 1-2 minutes.
5. Medium was removed from cell plate by flicking the cell plate on towel papers.
7. The cell plate was placed on plate shaker, the plate agitated at 600 rpm for 2 minutes. The plate was incubated at 37° C. for 2 hours followed by additional 15-minute incubation at 25° C.
8. 3×compound was prepared in assay buffer: a. Reference compounds were diluted to required concentration with DMSO. The compounds were added to a 384-well compound plate; b. Serial dilutions were performed; c. 10 mM test compounds were added to the compound plate, 3-fold serial dilutions were performed. […] 20 μl/well assay buffer was added to the compound plate; f.
9. The cell plate, compound plate and tips were placed into FLIPR, 10 μl of 3× compound was transferred to the cell plate per well with FLIPR.
i. The normalized fluorescence reading (RFU) was calculated as shown follow, while Fmax and Fmin stand for maximum and minimum of calcium signal during defined time window: RFU=Fmax−Fmin
ii. The percentage activation was calculated by using following equation: […]
iii. EC50 was calculated by fitting % activation against log of compound concentrations with Hill equation using Xlfit.

[6] = rapid first-pass metabolism by monoamine oxidase; cited from earlier work
[7] = molecular target: T1, human 5-HT2A; settings: read-out: binding affinity 5-HT2A; literature value; cited from earlier work
[8] = human liver microsomes, with NADPH

T1 sequence (P28223 whole entry): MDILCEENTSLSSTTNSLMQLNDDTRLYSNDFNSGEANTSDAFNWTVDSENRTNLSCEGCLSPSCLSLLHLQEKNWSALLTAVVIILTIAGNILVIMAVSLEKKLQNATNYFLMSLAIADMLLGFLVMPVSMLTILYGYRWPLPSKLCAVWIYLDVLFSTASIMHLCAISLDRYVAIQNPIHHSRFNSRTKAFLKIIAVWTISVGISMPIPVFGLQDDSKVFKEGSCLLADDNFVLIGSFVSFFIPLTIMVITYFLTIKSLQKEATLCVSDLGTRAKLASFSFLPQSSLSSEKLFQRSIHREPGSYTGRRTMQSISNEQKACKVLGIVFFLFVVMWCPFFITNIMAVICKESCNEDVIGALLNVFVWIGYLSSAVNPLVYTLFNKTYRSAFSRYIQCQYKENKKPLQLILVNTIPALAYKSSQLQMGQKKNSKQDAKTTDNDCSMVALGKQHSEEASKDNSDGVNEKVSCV
T2 sequence (P28223 whole entry): as above

## [2H]C([2H])(c1c[nH]c2ccccc12)[C@H]1CCCN1 [I-B-8, (R)-3-(pyrrolidin-2-ylmethyl-d2)-1H-indole]
[1]
  IC50: 500 to 5000 nM
[2]
  half-life at 2 μM: 1.22 h
  microsomal CLint at 2 μM: 18.9 µL/min/mg
  Remaining Percentage (%) after 60 min Mouse: 56.72%
[3]
  Remaining Percentage (%) after 60 min Rat: 38.89%
  half-life at 2 μM: 0.734 h
  microsomal CLint at 2 μM: 31.5 µL/min/mg
[4]; [8]
  Remaining Percentage (%) after 60 min Human: 91.11%
[4]
  half-life at 2 μM: 7.44 h
  microsomal CLint at 2 μM: 3.1 µL/min/mg
[5]
  EC50: 100 to 1000 nM

## [2H]C([2H])([2H])Oc1ccc2[nH]cc(C([2H])([2H])[C@H]3CCCN3)c2c1 [I-B-15, (R)-5-(methoxy-d3)-3-(pyrrolidin-2-ylmethyl-d2)-1H-indole]
[1]
  IC50: < 500 nM
[5]
  EC50: < 100 nM

## COc1ccc2[nH]cc(CCN(C)C)c2c1 [Compound 5-MeO-DMT, 5-methoxy-N,N-dimethyltryptamine, reference compound]
[6]
  oral activity: not orally active
[2]
  half-life at 2 μM: 0.842 h
  microsomal CLint at 2 μM: 27.4 µL/min/mg
  Remaining Percentage (%) after 60 min Mouse: 89.36%
[3]
  Remaining Percentage (%) after 60 min Rat: 16.02%
  half-life at 2 μM: 0.378 h
  microsomal CLint at 2 μM: 61 µL/min/mg
[4]; [8]
  CLint (μL/min/mg protein) Human: 101.08 μL/min/mg protein
  Half-Life t1/2 (min) Human: 13.75 min
  Remaining Percentage (%) after 60 min Human: 4.82%

## [2H]C([2H])(c1c[nH]c2ccc(OC)cc12)[C@H]1CCCN1C [I-B-10, (R)-5-methoxy-3-((1-methylpyrrolidin-2-yl)methyl-d2)-1H-indole]
[1]
  IC50: < 500 nM
[2]
  half-life at 2 μM: 1.51 h
  microsomal CLint at 2 μM: 38.4 µL/min/mg
  Remaining Percentage (%) after 60 min Mouse: 63.17%
[3]
  Remaining Percentage (%) after 60 min Rat: 35.87%
  half-life at 2 μM: 0.676 h
  microsomal CLint at 2 μM: 29 µL/min/mg
[4]; [8]
  Remaining Percentage (%) after 60 min Human: 78.24%
[4]
  half-life at 2 μM: 2.82 h
  microsomal CLint at 2 μM: 6.86 µL/min/mg
[5]
  EC50: < 100 nM

## [2H]C([2H])(c1c[nH]c2ccc(OC)cc12)[C@H]1CCCN1 [I-B-16, (R)-5-methoxy-3-(pyrrolidin-2-ylmethyl-d2)-1H-indole]
[1]
  IC50: < 500 nM
[2]
  half-life at 2 μM: 1.36 h
  microsomal CLint at 2 μM: 40.6 µL/min/mg
  Remaining Percentage (%) after 60 min Mouse: 60.16%
[3]
  Remaining Percentage (%) after 60 min Rat: 34.51%
  half-life at 2 μM: 0.651 h
  microsomal CLint at 2 μM: 29.5 µL/min/mg
[4]; [8]
  Remaining Percentage (%) after 60 min Human: 85.35%
[4]
  half-life at 2 μM: 4.38 h
  microsomal CLint at 2 μM: 5.01 µL/min/mg
[5]
  EC50: < 100 nM

## [2H]C([2H])([2H])Oc1ccc2[nH]cc(C([2H])([2H])[C@H]3CCCN3C([2H])([2H])[2H])c2c1 [I-B-12, (R)-5-(methoxy-d3)-3-((1-(methyl-d3)pyrrolidin-2-yl)methyl-d2)-1H-indole]
[1]
  IC50: < 500 nM
[2]
  half-life at 2 μM: 1.51 h
  microsomal CLint at 2 μM: 38.4 µL/min/mg
  Remaining Percentage (%) after 60 min Mouse: 63.17%
[3]
  Remaining Percentage (%) after 60 min Rat: 35.87%
  half-life at 2 μM: 0.676 h
  microsomal CLint at 2 μM: 29 µL/min/mg
[4]; [8]
  Remaining Percentage (%) after 60 min Human: 78.24%
[4]
  half-life at 2 μM: 2.82 h
  microsomal CLint at 2 μM: 6.86 µL/min/mg
[5]
  EC50: < 100 nM

## [2H]C([2H])(c1c[nH]c2ccccc12)[C@H]1CCCN1C [I-B-2, (R)-3-((1-methylpyrrolidin-2-yl)methyl-d2)-1H-indole]
[1]
  IC50: < 500 nM
[2]
  half-life at 2 μM: 1.02 h
  microsomal CLint at 2 μM: 47.1 µL/min/mg
  Remaining Percentage (%) after 60 min Mouse: 50.81%
[3]
  Remaining Percentage (%) after 60 min Rat: 0.81%
  half-life at 2 μM: 0.144 h
  microsomal CLint at 2 μM: 46.3 µL/min/mg
[4]; [8]
  Remaining Percentage (%) after 60 min Human: 64.96%
[4]
  half-life at 2 μM: 1.61 h
  microsomal CLint at 2 μM: 9.64 µL/min/mg
[5]
  EC50: < 100 nM

## [2H]C([2H])([2H])Oc1ccc2[nH]cc(C[C@H]3CCCN3C([2H])([2H])[2H])c2c1 [I-B-11, (R)-5-(methoxy-d3)-3-((1-(methyl-d3)pyrrolidin-2-yl)methyl)-1H-indole]
[1]
  IC50: < 500 nM
[2]
  half-life at 2 μM: 1.36 h
  microsomal CLint at 2 μM: 40.6 µL/min/mg
  Remaining Percentage (%) after 60 min Mouse: 60.16%
[3]
  Remaining Percentage (%) after 60 min Rat: 34.51%
  half-life at 2 μM: 0.651 h
  microsomal CLint at 2 μM: 29.5 µL/min/mg
[4]; [8]
  Remaining Percentage (%) after 60 min Human: 85.35%
[4]
  half-life at 2 μM: 4.38 h
  microsomal CLint at 2 μM: 5.01 µL/min/mg
[5]
  EC50: < 100 nM

## [2H]C([2H])([2H])N1CCC[C@@H]1Cc1c[nH]c2ccc(OC)cc12 [I-B-9, (R)-5-methoxy-3-((1-(methyl-d3)pyrrolidin-2-yl)methyl)-1H-indole]
[1]
  IC50: < 500 nM
[5]
  EC50: < 100 nM

## [2H]C([2H])(c1c[nH]c2ccc(OC)cc12)[C@H]1CCCN1C([2H])([2H])[2H] [I-B-13, (R)-5-methoxy-3-((1-(methyl-d3)pyrrolidin-2-yl)methyl-d2)-1H-indole]
[1]
  IC50: < 500 nM
[5]
  EC50: < 100 nM

## CN(C)CCc1c[nH]c2ccccc12 [DMT, N,N-dimethyltryptamine, reference compound]
[6]
  oral activity: not orally active
[1]
  IC50: 500 to 5000 nM
[2]
  half-life at 2 μM: 0.842 h
  microsomal CLint at 2 μM: 27.4 µL/min/mg
  Remaining Percentage (%) after 60 min Mouse: 65.90%
[3]
  Remaining Percentage (%) after 60 min Rat: 17.29%
  half-life at 2 μM: 0.378 h
  microsomal CLint at 2 μM: 61 µL/min/mg
[4]; [8]
  Remaining Percentage (%) after 60 min Human: 0.72%
[5]
  EC50: 100 to 1000 nM
[7]
  Ki: 0.237 nM

## [2H]C([2H])([2H])Oc1ccc2[nH]cc(C[C@H]3CCCN3)c2c1 [I-B-14, (R)-5-(methoxy-d3)-3-(pyrrolidin-2-ylmethyl)-1H-indole]
[1]
  IC50: < 500 nM
[2]
  half-life at 2 μM: 8.15 h
  microsomal CLint at 2 μM: 10.9 µL/min/mg
  Remaining Percentage (%) after 60 min Mouse: 91.85%
[3]
  Remaining Percentage (%) after 60 min Rat: 92.44%
  half-life at 2 μM: 8.82 h
  microsomal CLint at 2 μM: 4.33 µL/min/mg
[4]; [8]
  Half-Life t1/2 (min) Human: ∞
  Remaining Percentage (%) after 60 min Human: 110.97%
[5]
  EC50: < 100 nM
